# Laboratory results as given in patent publication US9930890B2 (priority 2010, dated 2018).
# Key:
# [1] = system: Peronospora brassicae; assay: Peronospora test (oilseed rape seeds)/seed treatment; format: in vivo; details: seed treatment, dose 50 g/dt, infected leaf area per plant after 7 days incubation, 0% = control, 100% = no disease
# Procedure: Peronospora Test (Oilseed Rape Seeds)/Seed Treatment
# The test was conducted under greenhouse conditions.
# Oilseed rape seeds treated with an inventive active compound or a combination of inventive active compounds dissolved in N-methyl-2-pyrrolidone and diluted with water to the desired dose were sown in 6*6 cm vessels. The vessels contain 4 cm of a 1:1 mixture of steam-treated field soil and sand. The plants grew at 10° C.
# 14-day-old plants were inoculated with an aqueous spore suspension of Peronospora brassicae. The vessels containing the plants were incubated in a greenhouse at a temperature of 15° C. and a relative air humidity of 100% for 7 days.
# The assessment of the test included the evaluation of the infected leaf area per plant. 0% means an efficiency corresponding to that of the control, while an efficiency of 100% means that no disease is observed.
# [2] = system: Plasmopara viticola; assay: Plasmopara test (grapevine)/protective; format: in vivo; details: grapevine young plants, protective spray, active ingredient concentration 10 ppm, evaluation 6 days after inoculation; 0% = control, 100% = no infection
# Procedure: Plasmopara Test (Grapevine)/Protective
# To produce an appropriate active ingredient formulation, 1 part by weight of active ingredient is mixed with the specified amounts of solvent and emulsifier, and the concentrate is diluted with water to the desired concentration.
# To test for protective efficacy, young plants are sprayed with the active ingredient formulation at the stated application rate. After the spray coating has dried on, the plants are inoculated with an aqueous spore suspension of Plasmopara viticola and then remain in an incubation cabin at approx. 20° C. and 100% relative air humidity for 1 day. Subsequently, the plants are placed in a greenhouse at approx. 21° C. and approx. 90% air humidity for 4 days. The plants are then moistened and placed in an incubation cabin for 1 day.
# Evaluation follows 6 days after the inoculation. 0% means an efficacy which corresponds to that of the control, whereas an efficacy of 100% means that no infection is observed.
# In this test, the following inventive compounds show, at an active ingredient concentration of 10 ppm, an efficacy of 70% or more: […]
# [3] = system: Phytophthora infestans; format: in vivo; details: tomato plants, protective spray, active ingredient concentration 100 ppm, evaluation 7 days after inoculation; 0% = control, 100% = no infection
# [4] = for logp [a]: pH 2.7; for logp [b]: pH 7.8
# [5] = physchem
SMILES,Eff. % [1],Eff. % [2],Eff. % [3],logp [a] [4],logp [b] [4],chromatographic logP ([5]; pH 2.7),chromatographic logP ([5]; pH 7.8)
O=C(Cn1nc(C(F)F)cc1C(F)F)N1CCC(c2nc(C3=NOC(c4ccccc4C=NO)C3)cs2)CC1 (mixture of isomers) [I-4],92%,100%,100%,,,,
Cc1cc(C(F)(F)F)nn1CC(=O)N1CCC(c2nc(C3=NOC(c4ccccc4C=NO)C3)cs2)CC1 (mixture of isomers) [I-38],86%,95%,100%,,,,
CON=Cc1cccc(F)c1C1CC(c2csc(C3CCN(C(=O)Cn4nc(C(F)F)cc4C(F)F)CC3)n2)=NO1 (mixture of isomers) [I-60],95%,100%,84%,"3.49[a],",3.38[b],,
Cc1cc(C(F)(F)F)nn1CC(=O)N1CCC(c2nc(C3=NOC(c4ccccc4OS(=O)(=O)C4CC4)C3)cs2)CC1 (racemic) [I-61],90%,100%,89%,"3.29[a],",3.31[b],,
Cc1cc(C(F)(F)F)nn1CC(=O)N1CCC(c2nc(C3=NOC(c4ccccc4OS(C)(=O)=O)C3)cs2)CC1 (racemic) [I-62],90%,100%,89%,"3.07[a],",2.98[b],,
"C[Si](C)(C)C#CCOc1ccccc1C1CC(c2csc(C3CCN(C(=O)Cn4nc(C(F)F)cc4C(F)F)CC3)n2)=NO1 (stereo not drawn) [I-1, 2-[3,5-Bis(difluoromethyl)-1H-pyrazol-1-yl]-1-(4-{4-[5-(2-{[3-(trimethylsilyl)prop-2-yn-1-yl]oxy}phenyl)-4,5-dihydro-1,2-oxazol-3-yl]-1,3-thiazol-2-yl}piperidin-1-yl)ethanone]",,,,,,4.71,4.58
"CC(C)(C)OC(=O)Nc1ccc(C2CC(c3csc(C4CCN(C(=O)Cn5nc(C(F)F)cc5C(F)F)CC4)n3)=NO2)cc1 (stereo not drawn) [I-17, tert-Butyl (4-{3-[2-(1-([3,5-bis(difluoromethyl)-1H-pyrazol-1-yl]acetyl}piperidin-4-yl)-1,3-thiazol-4-yl]-4,5-dihydro-1,2-oxazol-5-yl)phenyl)carbamate]",,,,,,3.45,3.46
"CON=Cc1ccccc1C1CC(c2csc(C3CCN(C(=O)Cn4nc(C(F)F)cc4C(F)F)CC3)n2)=NO1 (stereo not drawn) [I-26, 2-{3-[2-(1-{[3,5-Bis(difluoromethyl)-1H-pyrazol-1-yl]acetyl}piperidin-4-yl)-1,3-thiazol-4-yl]-4,5-dihydro-1,2-oxazol-5-yl}benzaldehyde O-methyloxime]",,100%,,,,3.59,
"CON=Cc1ccccc1C1CC(c2csc(C3CCN(C(=O)Nc4cc(Cl)ccc4C)CC3)n2)=NO1 (stereo not drawn) [I-41, N-(5-Chloro-2-methylphenyl)-4-[4-(5-{2-[(methoxyimino)methyl]phenyl}-4,5-dihydro-1,2-oxazol-3-yl)-1,3-thiazol-2-yl]piperidine-1-carboxamide]",,81%,,,,3.95,
CCS(=O)(=O)Oc1ccccc1C1CC(c2csc(C3CCN(C(=O)Cn4nc(C(F)F)cc4C(F)F)CC3)n2)=NO1 (stereo not drawn) [I-65],90%,100%,100%,"3.1[a],",3.09[b],,
CS(=O)(=O)Oc1ccccc1C1CC(c2csc(C3CCN(C(=O)Cn4nc(C(F)F)cc4C(F)F)CC3)n2)=NO1 (stereo not drawn) [I-124],100%,100%,100%,"2.86[a],",2.86[b],,
Cc1cc(C(F)(F)F)nn1CC(=O)N1CCC(c2nc(C3=NOC(c4ccccc4OS(=O)(=O)C(F)(F)F)C3)cs2)CC1 (stereo not drawn) [I-125],,100%,89%,"3.99[a],",4[b],,
CN(C)C(=S)c1ccccc1C1CC(c2csc(C3CCN(C(=O)Cn4nc(C(F)F)cc4C(F)F)CC3)n2)=NO1 (stereo not drawn) [I-127],,96%,97%,"3.11[a],",3.06[b],,
COC(=O)COc1ccc(C2CC(c3csc(C4CCN(C(=O)Cn5nc(C(F)F)cc5C(F)F)CC4)n3)=NO2)cc1 (stereo not drawn) [I-128],,93%,90%,"2.89[a],",2.87[b],,
O=C(Oc1ccccc1C1CC(c2csc(C3CCN(C(=O)Cn4nc(C(F)F)cc4C(F)F)CC3)n2)=NO1)c1cccc(F)c1 (stereo not drawn) [I-129],,98%,98%,"3.76[a],",3.7[b],,
O=C(Oc1ccccc1C1CC(c2csc(C3CCN(C(=O)Cn4nc(C(F)F)cc4C(F)F)CC3)n2)=NO1)c1ccccc1F (stereo not drawn) [I-130],,100%,100%,"3.61[a],",3.58[b],,
O=C(Oc1ccccc1C1CC(c2csc(C3CCN(C(=O)Cn4nc(C(F)F)cc4C(F)F)CC3)n2)=NO1)c1ccccc1 (stereo not drawn) [I-131],,94%,100%,"3.69[a],",3.65[b],,
O=C(Oc1ccccc1C1CC(c2csc(C3CCN(C(=O)Cn4nc(C(F)F)cc4C(F)F)CC3)n2)=NO1)c1ccc(F)cc1 (stereo not drawn) [I-132],,96%,100%,"3.73[a],",3.7[b],,
C[Si](C)(C)C#Cc1ccccc1C1CC(c2csc(C3CCN(C(=O)Cn4nc(C(F)F)cc4C(F)F)CC3)n2)=NO1 (stereo not drawn) [I-133],,85%,100%,"4.78[a],",4.79[b],,
C#CCOCc1ccccc1C1CC(c2csc(C3CCN(C(=O)Cn4nc(C(F)F)cc4C(F)F)CC3)n2)=NO1 (stereo not drawn) [I-138],,98%,93%,3.74[a],,,
Cc1cc(C(F)(F)F)nn1CC(=O)N1CCC(c2nc(C3=NOC(c4ccccc4OCC#N)C3)cs2)CC1 (stereo not drawn) [I-140],,100%,84%,"2.97[a],",2.98[b],,
